Data as given in ChEMBL document CHEMBL1147328, “13C-NMR assignments and cytotoxicity assessment of zoanthoxanthin alkaloids from zoanthid corals” (J Nat Prod, 1993).
≈ marks a conversion by molar mass, not a printed value.

What was measured:
Format in all cases: functional, cell-based
[1] = test system: HCT-8; test: Cytotoxicity against human HCT8 cells
[2] = test system: A549; test: Cytotoxicity against human A549 cells
[3] = test system: HT-29; test: Cytotoxicity against human HT-29 cells
[4] = test system: P388; test: Cytotoxicity against mouse P388 cells

## CNc1nc2c(C)ccc3nc(N(C)C)nc-3c2n1C
[1]
  IC50: 1.61 µg/mL (≈ 5.96 µM)
[2]
  IC50: 2.38 µg/mL (≈ 8.8 µM)
[3]
  IC50: 0.824 µg/mL (≈ 3.05 µM)
[4]
  IC50: 1.77 µg/mL (≈ 6.55 µM)
